Results reported in patent US5302514A, “Maltooligoside derivative, reagent for determining α-amylase activity containing the same as effective ingredient and a process for determining the α-amylase activity using same” (Kikkoman Corporation, priority 1991, dated 1994).

Key:
[1] = target: T1, amylase derived from human saliva (human S type α-amylase) (Homo sapiens, UniProt P0DUB6); assay: Patterns of action (hydrolyzed product by HPLC), S type α-amylase; assay type: biochemical; conditions: 0.5 mM substrate, 37° C., 20 minutes
T1 sequence (P0DUB6 16-511): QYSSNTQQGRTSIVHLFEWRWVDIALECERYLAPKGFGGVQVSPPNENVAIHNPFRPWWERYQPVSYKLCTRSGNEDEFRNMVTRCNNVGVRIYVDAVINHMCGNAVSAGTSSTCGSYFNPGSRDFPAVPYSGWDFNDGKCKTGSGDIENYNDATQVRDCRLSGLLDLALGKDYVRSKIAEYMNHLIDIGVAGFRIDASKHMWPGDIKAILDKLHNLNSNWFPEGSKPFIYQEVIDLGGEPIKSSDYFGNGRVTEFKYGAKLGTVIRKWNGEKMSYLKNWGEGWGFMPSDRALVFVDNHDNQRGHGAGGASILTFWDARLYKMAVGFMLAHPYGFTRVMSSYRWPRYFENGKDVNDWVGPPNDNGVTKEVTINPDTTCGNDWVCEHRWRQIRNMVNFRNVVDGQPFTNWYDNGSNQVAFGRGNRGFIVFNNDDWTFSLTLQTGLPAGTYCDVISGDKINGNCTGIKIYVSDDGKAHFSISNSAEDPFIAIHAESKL
Method: Commercially available human P type and S type α-amylase solutions having a concentration of ca. 500 IU/l were prepared in the same manner as in the step (3) of Example 5.
To 1.0 ml of the substrate solution was added 100 μl of the α-amylase solution prepared in the paragraph (iii) of the aforementioned hydrolysis rate, and the mixture, after stirred sufficiently, was subjected to reaction at 37° C. for 20 minutes. The hydrolyzed product was determined quantitatively by the high performance liquid chromatography of the reaction mixture.
(§1) S: amylase derived from human saliva.

[2] = target: T1, amylase derived from human saliva (human S type α-amylase); assay: Km value, S type α-amylase; assay type: biochemical; conditions: pH 7.0, 37° C., Lineweaver-Burk
Method: Km values, hydrolysis rate, water solubility and the patterns of action in the hydrolysis of the present substrates 2-chloro-4-nitrophenyl 5^5 -eno-4^5 -O-mesyl-β-D-maltopentaoside (EMG5CNP) and 2-chloro-4-nitrophenyl 6^5 -azido-6^5 -deoxy- β-D-maltopentaoside (ADG5CNP) obtained in Example were examined in accordance with the following methods.
Substrate solutions were prepared by dissolving in a 50 mM phosphate buffer (pH=7.0) containing 40 mM NaCl and 2 mM MgCl2 a substrate to 0.16, 0.32, 0.48, 0.64, 0.80 and 0.96 mM, respectively.
The Km value of each substrate solution was obtained by measuring the hydrolysis rate of the substrate in accordance with the same procedure as in the measurement of hydrolysis rate described below and roughly calculating the Lineweaver-Burk's reciprocal plot (see "Tanpaku-Kohso no Jikken-hou", ed. Takeichi Horio & Jinpei Yamashita, Nanko-do, 1981).
Each substrate was dissolved in a 50 mM phosphate buffer (pH=7.0) containing 40 mM NaCl and 2 mM MgCl2 to make three substrate solutions in a concentration of 0.8-1.6 times and three substrate solutions in a concentration of 1.6-3.2 times per the roughly calculated Km value in the aforementioned paragraph (ii).
The Km value was calculated in accordance with the same procedure as in the aforementioned paragraph (ii).
as §1

Patterns of action, hydrolyzed product G2CNP [1] [mol %] | Patterns of action, hydrolyzed product G3CNP [1] [mol %] | Patterns of action, hydrolyzed product G4CNP [1] [mol %] | Patterns of action, hydrolyzed product GCNP [1] [mol %] | Km [2] [µM] | SMILES
100 | 0 | 0 | 0 | 260 | [N-]=[N+]=NC[C@H]1O[C@H](O[C@H]2[C@H](O)[C@@H](O)[C@@H](O[C@H]3[C@H](O)[C@@H](O)[C@@H](O[C@H]4[C@H](O)[C@@H](O)[C@@H](O[C@H]5[C@H](O)[C@@H](O)[C@H](Oc6ccc([N+](=O)[O-])cc6Cl)O[C@@H]5CO)O[C@@H]4CO)O[C@@H]3CO)O[C@@H]2CO)[C@H](O)[C@@H](O)[C@@H]1O [ADG5CNP, 2-chloro-4-nitrophenyl 6^5-azido-6^5-deoxy-β-D-maltopentaoside]
97 | 0 | 0 | 3 | 140 | C=C1O[C@H](O[C@H]2[C@H](O)[C@@H](O)[C@@H](O[C@H]3[C@H](O)[C@@H](O)[C@@H](O[C@H]4[C@H](O)[C@@H](O)[C@@H](O[C@H]5[C@H](O)[C@@H](O)[C@H](Oc6ccc([N+](=O)[O-])cc6Cl)O[C@@H]5CO)O[C@@H]4CO)O[C@@H]3CO)O[C@@H]2CO)[C@H](O)[C@@H](O)[C@@H]1OS(C)(=O)=O [EMG5CNP, 2-chloro-4-nitrophenyl 5^5-eno-4^5 -O-mesyl-β-D-maltopentaoside]
